# Measured values: US20240043382A1, “MODIFIED INDOLE ALKALOIDS FOR THERAPEUTIC USES” (priority 2020, published 2024)
# Key:
# [1] = target: T1, human 5-HT2C (h5-HT2C) receptor (Homo sapiens, UniProt P28335); experiment: 5-HT2C receptor functional assay (Gq-mediated calcium flux) of saliva-hydrolyzed modified indole alkaloids; assay type: cell-based; conditions: 5HT2C agonist activity, compounds hydrolyzed by treatment with human saliva; for EC50: Flp-In T-REx 293 cells expressing h5-HT2C, peak calcium flux; for Emax % 5-HT (± SEM): normalized to 5-HT (100%)
# T1 construct: host or cells: Flp-In T-REx 293 cells
# T1 sequence (P28335 33-458): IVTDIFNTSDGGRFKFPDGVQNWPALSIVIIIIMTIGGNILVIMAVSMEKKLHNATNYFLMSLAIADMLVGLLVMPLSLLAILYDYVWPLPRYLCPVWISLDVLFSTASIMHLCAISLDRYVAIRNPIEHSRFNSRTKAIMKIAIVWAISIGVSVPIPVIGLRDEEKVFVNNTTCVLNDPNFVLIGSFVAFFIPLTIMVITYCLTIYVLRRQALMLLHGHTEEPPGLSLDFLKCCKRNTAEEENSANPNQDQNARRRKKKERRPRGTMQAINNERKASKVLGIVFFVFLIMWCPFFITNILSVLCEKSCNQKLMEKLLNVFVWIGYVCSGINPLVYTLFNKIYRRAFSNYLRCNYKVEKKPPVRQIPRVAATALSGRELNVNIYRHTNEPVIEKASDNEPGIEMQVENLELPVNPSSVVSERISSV
# [2] = target: T2, human 5-HT2A (h5-HT2A) receptor (Homo sapiens, UniProt P28223); experiment: 5-HT2A receptor functional assay (Gq-mediated calcium flux) of saliva-hydrolyzed modified indole alkaloids; assay type: cell-based; conditions: 5HT2A agonist activity, compounds hydrolyzed by treatment with human saliva; for EC50: Flp-In T-REx 293 cells expressing h5-HT2A, peak calcium flux; for Emax % 5-HT (± SEM): normalized to 5-HT (100%)
# T2 construct: host or cells: Flp-In T-REx 293 cells
# T2 sequence (P28223 whole entry): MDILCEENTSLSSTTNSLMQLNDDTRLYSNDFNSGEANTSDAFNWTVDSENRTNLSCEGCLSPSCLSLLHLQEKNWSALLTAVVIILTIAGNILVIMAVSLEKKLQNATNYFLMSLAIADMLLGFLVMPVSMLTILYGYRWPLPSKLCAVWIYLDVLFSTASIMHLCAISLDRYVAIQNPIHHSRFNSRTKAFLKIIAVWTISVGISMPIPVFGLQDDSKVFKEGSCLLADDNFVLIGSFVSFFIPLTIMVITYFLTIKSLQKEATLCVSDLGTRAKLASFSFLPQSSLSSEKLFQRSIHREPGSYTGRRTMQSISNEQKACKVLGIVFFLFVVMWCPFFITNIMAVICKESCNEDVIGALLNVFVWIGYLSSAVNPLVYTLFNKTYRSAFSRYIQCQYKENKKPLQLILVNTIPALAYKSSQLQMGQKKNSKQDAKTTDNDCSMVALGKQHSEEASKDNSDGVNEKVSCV
# [3] = Digestion of modified indole alkaloids with human salivary samples (LC-MS); assay type: in vitro ADME; conditions: 100 μM compound, 50 μL human saliva, 2 hours at 37° C., pH 7.5
# Experimental: Human saliva samples were collected 25 minutes before food intake after 8 hours fasting from an adult subject with no clinical symptoms. For saliva collection, saliva samples were obtained by passive drool into sterile 10 mL centrifuge tubes over a 5-min period. Immediately after collection, saliva samples were centrifuged (500 g for 10 min at 4° C.) and the supernatant was recovered and used immediately or stored at −80° C. until further use.
# Eleven 100-μL reaction mixtures were prepared, consisting of: • 50 mM HEPES pH 7.5 • 50 mM NaCl • 100 μM modified indole alkaloid product (from Reactions 3, 24, 39-47, respectively) • 50 μL, of human saliva sample • 2 mM calcium chloride • 5 mM magnesium chloride
# The reaction mixtures were digested for 2 hours at 37° C., and heated to 80° C. for 5 minutes to terminate the reactions. The reaction mixtures were then centrifuged at 30,000 ref and the supernatant transferred to a fresh sample tube.
# One microliter of the sample was injected onto a ZORBAX StableBond-C18, 1.8 um, 2.1×50 mm column at 20° C. using a 0.3 mL/min flow rate and major ion species were detected with a 6520 Accurate-Mass Q-TOF LC-MS (Agilent) in positive mode. The mobile phase consisted of a mixture of 0.1% formic acid in acetonitrile (v/v) and 0.1% formic acid in water (v/v) was eluted under the following gradient conditions (shown in relation to acetonitrile content): 0 min-10%, 6 min-100%, 7 min-10%, 14 min-10%. The mobile phase was delivered at a flow rate of 0.3 mL/min and the total analytical run time was 14 min.
# [4] = target: T2, human 5-HT2A (h5-HT2A) receptor; experiment: 5-HT2A receptor functional assay (calcium flux) of modified indole alkaloids digested with calf intestinal alkaline phosphatase; assay type: cell-based; conditions: after 2 hours with 100 units calf intestinal alkaline phosphatase, pH 7.9, 25° C.; compared to 5-HT
# Experimental: 1 mM of 4-3-(2-(dipropylamino)ethyl)-1H-indol-4-yl dihydrogen phosphate (Compound A) was incubated with 100 units of calf intestinal alkaline phosphatase for 2 hours in buffer containing 50 mM Potassium acetate, 20 mM Tris-acetate, 10 mM Magnesium acetate, and 100 μg/ml BSA at pH 7.9 and 25° C. 1 mM of 4-3-(2-(diisopropylamino)ethyl)-1H-indol-4-yl dihydrogen phosphate (Compound B) was incubated with 100 units of calf intestinal alkaline phosphatase for 2 hours in buffer containing 50 mM Potassium acetate, 20 mM Tris-acetate, 10 mM Magnesium acetate, and 100 μg/ml BSA at pH 7.9 and 25° C. The resulting solutions containing dephosphorylated products were used in a 5-HT2A receptor functional assay. […]
# Before the experiment, plates were allowed to equilibrate to room temperature, and calcium flux was measured using a […] cellular screening system (Molecular Devices, Sunnyvale, CA). Plates were read for fluorescence initially for 10 s (1 read per second) to establish a baseline and then stimulated with drug dilutions or buffer and read for an additional 120 s. Peak fluorescence in each well was normalized to the maximum fold increase over baseline. […] Data were analyzed using the sigmoidal dose-response function of Prism 5.0 or 8.0 (GraphPad Software, San Diego, CA). Relative activity (RA) was expressed as the logarithm of the ratio of Emax over EC50 parameter estimates. […]
Structure (SMILES),EC50 [1],Emax % 5-HT (± SEM) [1],EC50 [2],Emax % 5-HT (± SEM) [2],"conversion by human saliva to 4-hydroxy-N,N-diisopropyltryptamine (LC-MS) [3]","functional agonism of 5HT2A receptor, peak calcium flux response (FIG. 5) [4]"
"CN(CCc1c[nH]c2cccc(O[C@H]3O[C@H](CO)[C@@H](O)[C@H](O)[C@H]3O)c12)C1CC1 (stereo in doubt) [Hydrolyzed Compound A-9, 2-((3-(2-(cyclopropyl(methyl)amino)ethyl)-1H-indol-4-yl)oxy)-6-(hydroxymethyl)tetrahydro-2H-pyran-3,4,5-triol]",149 nM,79.1 ± 6.1 % 5-HT,5.1 nM,99.4 ± 2.0 % 5-HT,,
"CC(C)N(CCc1c[nH]c2cccc(O[C@H]3O[C@H](CO)[C@@H](O)[C@H](O)[C@H]3O)c12)C(C)C (stereo in doubt) [Hydrolyzed Compound A-7, 2-((3-(2-(diisopropylamino)ethyl)-1H-indol-4-yl)oxy)-6-(hydroxymethyl)tetrahydro-2H-pyran-3,4,5-triol]",1550 nM,94.4 ± 1.2 % 5-HT,6.81 nM,103 ± 1.2 % 5-HT,,
"CCN(CC)CCc1c[nH]c2cccc(O[C@H]3O[C@H](CO)[C@@H](O)[C@H](O)[C@H]3O)c12 (stereo in doubt) [Hydrolyzed Compound A-4, 2-((3-(2-(diethylamino)ethyl)-1H-indol-4-yl)oxy)-6-(hydroxymethyl)tetrahydro-2H-pyran-3,4,5-triol]",258 nM,80.1 ± 1.9 % 5-HT,6.48 nM,100.1 ± 1.1 % 5-HT,,
"CCCN(C)CCc1c[nH]c2cccc(O[C@H]3O[C@H](CO)[C@@H](O)[C@H](O)[C@H]3O)c12 (stereo in doubt) [Hydrolyzed Compound A-2, 2-(hydroxymethyl)-6-((3-(2-(methyl(propyl)amino)ethyl)-1H-indol-4-yl)oxy)tetrahydro-2H-pyran-3,4,5-triol]",47.8 nM,90.7 ± 1.5 % 5-HT,3.83 nM,98.0 ± 1.1 % 5-HT,,
"CC(=O)CC(=O)Oc1cccc2[nH]cc(CCN(C(C)C)C(C)C)c12 [Compound E, 3-(2-(diisopropylamino)ethyl)-1H-indol-4-yl 3-oxobutanoate]",,,,,completely hydrolyzed,
"CCCN(CCC)CCc1c[nH]c2cccc(O[C@H]3O[C@H](CO)[C@@H](O)[C@H](O)[C@H]3O)c12 (stereo in doubt) [Hydrolyzed Compound A-6, 2-((3-(2-(dipropylamino)ethyl)-1H-indol-4-yl)oxy)-6-(hydroxymethyl)tetrahydro-2H-pyran-3,4,5-triol]",214 nM,84.2 ± 1.0 % 5-HT,1.65 nM,103.2 ± 1.0 % 5-HT,,
"C=CCN(C)CCc1c[nH]c2cccc(O[C@H]3O[C@H](CO)[C@@H](O)[C@H](O)[C@H]3O)c12 (stereo in doubt) [Hydrolyzed Compound A-8, 2-((3-(2-(allyl(methyl)amino)ethyl)-1H-indol-4-yl)oxy)-6-(hydroxymethyl)tetrahydro-2H-pyran-3,4,5-triol]",49.2 nM,81.5 ± 2.4 % 5-HT,3.66 nM,102 ± 1.0 % 5-HT,,
"CCCN(CCC)CCc1c[nH]c2cccc(OP(=O)(O)O)c12 [Compound A, 4-3-(2-(dipropylamino)ethyl)-1H-indol-4-yl dihydrogen phosphate]",,,,,,5HT2A agonism
"CC(C)N(CCc1c[nH]c2cccc(OP(=O)(O)O)c12)C(C)C [Compound B, 4-3-(2-(diisopropylamino)ethyl)-1H-indol-4-yl dihydrogen phosphate]",,,,,,5HT2A agonism
"CC(C)N(CCc1c[nH]c2cccc(O[C@H]3O[C@H](CO)[C@@H](O)[C@H](O)[C@H]3O)c12)C(C)C [Hydrolyzed Compound A-7, 2-((3-(2-(diisopropylamino)ethyl)-1H-indol-4-yl)oxy)-6-(hydroxymethyl)tetrahydro-2H-pyran-3,4,5-triol]",,,,,completely deglycosylated,
"CCN(C)CCc1c[nH]c2cccc(O[C@H]3O[C@H](CO)[C@@H](O)[C@H](O)[C@H]3O)c12 (stereo in doubt) [Hydrolyzed Compound A-1, 2-((3-(2-(ethyl(methyl)amino)ethyl)-1H-indol-4-yl)oxy)-6-(hydroxymethyl)tetrahydro-2H-pyran-3,4,5-triol]",30.1 nM,89.9 ± 2.1 % 5-HT,4.01 nM,96.7 ± 1.1 % 5-HT,,
"CC(C)N(CCc1c[nH]c2cccc(OC(=O)CC(=O)O)c12)C(C)C [Compound D, 3-((3-(2-(diisopropylamino)ethyl)-1H-indol-4-yl)oxy)-3-oxopropanoic acid]",,,,,completely hydrolyzed,
"CCCN(CC)CCc1c[nH]c2cccc(O[C@H]3O[C@H](CO)[C@@H](O)[C@H](O)[C@H]3O)c12 [Hydrolyzed Compound A-5, 2-((3-(2-(ethyl(propyl)amino)ethyl)-1H1-indol-4-yl)oxy)-6-(hydroxymethyl)tetrahydro-2H-pyran-3,4,5-triol]",117 nM,89.4 ± 2.6 % 5-HT,3.16 nM,99.4 ± 1.2 % 5-HT,,
